Key:
Type in all cases: physicochemical
[1] = 1-MCP buildup and retention in sealed vs unsealed apple storage room, box fan device; settings: 2-6° C., after 15 hours of running the fan, 0.5 kg activated carbon bed
Description: This example describes release of an active ingredient into an enclosure using a device and system as described in this disclosure. Specifically, gaseous 1-MCP buildup and retention in an enclosure in the form of a sealed apple room was compared to buildup and retention in an unsealed apple storage room.
A pump in the form of a 20″×20″ box fan was placed inside of a 33,264 cubic foot apple storage room kept at a temperature between 2-6° C., with the fan facing up and elevated several inches from the ground to allow space for air to enter the fan from below. The device was assembled by placing a metal air filter housing and a 20″×20″ air filter (Nordic Pure® Part 20201.8-3) on top of the fan, to which was added a 0.5 kg bed of a particulate delivery material in the form of activated carbon powder associated with an activate ingredient in the form of 1-MCP. Another identical 20″×20″ air filter was placed on top of the 1-MCP-loaded activated carbon and secured with a clamp. The apple storage room was vacated by the user and sealed before the fan was turned on. […] The C2H4 sensor was calibrated for 1-MCP by comparison with gas chromatography readings, and reported values in millivolts which were subtracted from baseline readings for the detector and then converted via the calibration curve to concentration measurements. […]

[2] = 1-MCP release, dry forced-air (duct fan) vs water-based release in sealed apple storage room; settings: sealed room 2-6° C.
Description: This example describes a comparison of active ingredient release profiles and rates using a device and system of this disclosure as compared to an existing technique. Specifically, gaseous 1-MCP release via pump-driven gaseous fluid flow was compared to water-based release of 1-MCP.
A pump in the form of a duct fan was placed inside of a 30,624 cubic foot apple storage room kept between 2-6° C. The fan was placed facing up onto two iron bars to allow space for air to enter below the fan. The device was assembled by placing a 12″ mesh sieve on top of the duct fan, to which was added a 1 kg bed of a particulate delivery material in the form of activated carbon powder associated with an activated ingredient in the form of 1-MCP. The sieve and delivery material was then contained by placing a pair of nylon stockings over the opening of the sieve and sealing it all with duct tape. The room was vacated by the user and sealed before the fan was turned on. […] At the same time, a comparative experiment was performed by placing, in an adjacent identical apple storage room, a bucket containing 12 L of distilled water and 4 aerators (each of which produced 0.024 cubic feet per min, 0.096 cubic feet per minute total). […] The 1-MCP levels in the sealed apple storage room for the second, comparative experiment was measured in the same manner as described above.

[3] = 1-MCP release with pump vs without pump in sealed apple storage room; settings: box fan on vs off, first 240 minutes, 0.5 kg activated carbon bed, sealed room 2-6° C.
Description: This example describes the effect of directing gaseous fluid flow through a delivery material on the rate of release of active ingredients. Specifically, gaseous 1-MCP release via pump-driven gas flow was compared to release in the absence of pump-driven flow.
A pump in the form of a 20″×20″ box fan was placed inside of a 33,264 cubic foot apple storage room kept at a temperature between 2-6° C., with the fan facing up and elevated several inches from the ground to allow space for air to enter the fan from below. The device was assembled by placing a metal air filter housing and a 20″×20″ air filter (Nordic Pure® Part 20201.8-3) on top of the fan, to which was added a 0.5 kg bed of a particulate delivery material in the form of activated carbon powder associated with an activated ingredient in the form of 1-MCP. Another identical 20″×20″ air filter was placed on top of the 1-MCP-loaded activated carbon and secured with a clamp. The apple storage room was vacated by the user and sealed before the fan was turned on. At the same time, in an adjacent, identical apple storage room, a second, identical device described above was set up with a 0.5 kg bed of activated carbon powder associated with 1-MCP. However, the fan of this second device was not turned on.

[4] = 1-MCP release rate as a function of air speed; settings: five air speeds and 0 m/s, 0.5 kg activated carbon powder, sealed room of approximately 30,000 cubic feet
Description: This example describes the release rate of an active ingredient from a delivery material as a function of gaseous fluid flow rate through the delivery material. Specifically, the rate of gaseous 1-MCP release via pump-driven air flow was measured as a function of the air flow rate.
In a sealed apple storage room of approximately 30,000 cubic feet, 0.5 kg of a particulate delivery material in the form of activated carbon powder associated with an activated ingredient in the form of 1-MCP was held in front of pumps in the form of fans with known air speeds for greater than 2 hours each. The fan type and geometry was varied to access various air speeds. The concentration of 1-MCP in the atmosphere of the sealed apple storage room was monitored using measurements from a detector making use of the C2H4 sensor described in Example 1, and release rates were calculated at five different air speeds, as well as at a flow rate of 0 m/s.

## CC1=CC1 [1-MCP, 1-methylcyclopropene]
[1]; sealed apple storage room
  measured 1-MCP level in room: greater 1-MCP level
[1]; unsealed apple storage room (portal door open)
  measured 1-MCP level in room: significant level of 1-MCP
[2]; dry forced-air release method, duct fan
  duration of sustained release: > 170 min
[2]; initial slope of concentration profiles, 1 kg activated carbon bed
  increase in rate of release, dry forced-air release vs water-based release: 16 fold
[3]
  1-MCP release with pump compared to no pump: released at a greater rate and in greater amounts
[4]
  1-MCP release rate as a function of air speed: greater rate when faster air speeds were used
